Measured values published in patent publication US7109220B2, “Amino substituted pyridinyl methanone compounds useful in treating kinase disorders” (Janssen Pharmaceutica N.V., priority 2003, dated 2006).

How the values were obtained:
VEGF-R2 kinase = biological target: T1, VEGF-R2 kinase (Rattus norvegicus, UniProt O08775); test: VEGF-R2 Kinase Screening Assay; type: biochemical; conditions: soluble rat VEGF-R2 kinase, 10 μM ATP; read-out: VEGF-R IC50
T1 construct: polyhistidine (N)
Method: (§1) A kinase reaction mixture was prepared containing 50 mM Tris-HCl pH=8, 10 mM MgCl2, 0.1 mM Na3PO4, 1 mM DTT, 10 μM ATP, 0.025 uM biotinylated peptide substrate and 0.8 μCuries per well^33P-γ-ATP [2000–3000 Ci/mmol]. 70 μL of the kinase reaction mixture was dispensed into the well of a streptavidin coated FlashPlate™ (Cat. #SMP103, NEN, Boston, Mass.). 1 μL of test compound stock in 100% DMSO was added to the wells resulting in a final concentration of 1% DMSO in the mixture with a 100 μL final reaction volume. Soluble rat VEGF-R2 kinase^3 was diluted in 50 mM Tris-HCl pH=8.0, 0.1% BSA at a concentration of 5 ng per microliter and 30 μL (150 ng enzyme per test well) was added to each well to initiate the reaction. The reaction was incubated for one hour at 30° C. At the end of the 1-hour incubation, the reaction was terminated by aspirating the reaction mixture from the plate and washing the wells twice with PBS containing 100 mM EDTA. The PLC1 biotinylated peptide substrate became immobilized on the Flashplate™ and the incoporation of ^33P-γ-ATP was measured by reading the plate on a scintillation counter. Inhibition of the enzymatic activity of the VEGF-R was measured by observing a reduced amount of ^33P-γ-ATP incorporated into the immobilized peptide. ^3VEGF-R2 kinase (Vascular Endothelial Growth Factor Receptor-2): a fusion protein containing a polyhistidine tag at the N-terminus followed by amino acids 786–1343 of the rat VEGF-R2 kinase domain GenBank Accession #U93306); Peptide Substrate (Biotin)KHKKLAEGSAYEEV-Amide
(§2) IC50 values listed as >10 or >100 indicate no observed 50% inhibition at the highest dose tested, nor was an inhibition maximum observed.

CDK2:Cyclin-E = biological target: T2, CDK2:Cyclin-E (Homo sapiens, UniProt P24941); test: CDK2 Screening Assay; type: biochemical; conditions: 10 μM ATP, histone-H1 peptide substrate
T2 construct: purchased Upstate Biotechnology, Lake Placid, N.Y
Method: (§3) A kinase reaction mixture was prepared containing 50 mM Tris-HCl pH=8, 10 mM MgCl2, 0.1 mM Na3PO4, 1 mM DTT, 10 μM ATP, 0.025 μM biotinylated histone-H1 peptide substrate and 0.2 μCuries per well^33P-γ-ATP [2000–3000 Ci/mmol]. 70 μL of the kinase reaction mixture was dispensed into the well of a streptavidin coated FlashPlate™ (Cat. #SMP103, NEN, Boston, Mass.). Then 1 μL of test compound stock in 100% DMSO was added to the wells resulting in a final concentration of 1% DMSO in the reaction with a 100 μL final reaction volume. CDK1:Cyclin-B protein^1 was diluted in 50 mM Tris-HCl pH=8.0, 0.1% BSA at a concentration of 1 ng per microliter. 30 μL (30 ng enzyme per test well) was added to each well to initiate the reaction, The reaction was incubated for one hour at 30° C. At the end of the 1-hour incubation, the reaction was terminated by aspirating the reaction mixture from the plate and washing the wells twice with PBS containing 100 mM EDTA. The histone-H1 biotinylated peptide substrate became immobilized on the Flashplate™ and the incorporation of ^33P-γ-ATP was measured by reading the plate on a scintillation counter. Inhibition of the enzymatic activity of CDK1 was measured by observing a reduced amount of ^33P-γ-ATP incorporated into the immobilized peptide. ^1CDK1 (cyclin dependent kinase 1) was isolated from insect cells expressing both the human CDK1 catalytic subunit and its positive regulatory subunit Cyclin B (CDK1: New England Biolabs, Beverly, Mass., Cat. #6020; Cyclin-B: BIOMOL, Plymouth Meeting, Pa., Cat. #SE-195); Peptide Substrate (Biotin)KTPKKAKKPKTPKKAKKL-Amide.
Using the procedure and materials of Example 1, replacing CDK1:Cyclin-B protein with CDK2:Cyclin-E protein^2, the IC50 data for CDK2 is shown in Table 2. ^2CDK2 (cyclin dependent kinase 2) in complex with cyclin E is commercially available (Upstate Biotechnology, Lake Placid, N.Y.); Peptide Substrate (Biotin)KTPKKAKKPKTPKKAKKL-Amide
IC50 values listed as ˜100 indicate no observed 50% inhibition at the highest dose tested, nor was an inhibition maximum observed.

HER2 kinase = biological target: T3, HER2 kinase (Homo sapiens, UniProt P04626); test: HER-2 Kinase Screening Assay; type: biochemical; conditions: HER2 cytoplasmic domain construct, 10 μM ATP
T3 construct: polyhistidine (N); 24 additional non-native amino acids (between the His tag and HER2) (N)
Method: as §1
Using the procedure and materials of Example 3, replacing VEGF-R2 kinase with HER2^4, the IC50 data for HER2 kinase is shown in Table 4. ^4HER2 (Human Epidermal Growth Factor Receptor-2): a construct containing a polyhistidine tag at the N-terminus followed by 24 additional non-native amino acids beginning at amino acid 676 (Accession number M11730) followed by the remainder of the HER2 cytoplasmic domain; Peptide Substrate (Biotin)KHKKLAEGSAYEEV-Amide.
IC50 values listed as >100 indicate no observed 50% inhibition at the highest dose tested, nor was an inhibition maximum observed.

CDK1:Cyclin-B = biological target: T4, CDK1:Cyclin-B (Homo sapiens, UniProt P06493); test: CDK1 Screening Assay; type: biochemical; conditions: 10 μM ATP, histone-H1 peptide substrate, 1 hour at 30° C.
T4 construct: purchased New England Biolabs, Beverly, Mass; (CDK1); BIOMOL, Plymouth Meeting, Pa; (Cyclin-B) #6020 (CDK1); #SE-195 (Cyclin-B); host or cells: insect cells
Method: as §3, §2

[1] = test system: HeLa cervical adenocarcinoma; test: Inhibition of Cell Proliferation (14C-thymidine incorporation), HeLa; type: cell-based; conditions: Homo sapiens
Method: (§4) The ability of a test compound to inhibit the proliferation of cell growth was determined by measuring incorporation of ^14C-labelled thymidine into newly synthesized DNA within the cells. This method was used on cell lines derived from carcinomas originating from several tissues such as HeLa cervical adenocarcinoma (American Type Culture Collection (ATCC), Virginia, Cat. #CCL-2), HCT-116 colon carcinoma (CCL-247), MDA-MB-231 (Xenogen Corp.), PC-3 prostate adenocarcinoma (ATCC CRL-1435) and A375 malignant melanoma (ATCC CRL-1619).
(§5) Using this method, the effect of a compound on cell growth for cells with many different phenotypes can be determined. Cells were trypsinized and counted and 3000–8000 cells were added to each well of a 96-well CytoStar tissue culture treated scintillating microplate (Amersham #RPNQ0160) in complete medium in a volume of 100 μl. Cells were incubated for 24 hours in complete medium at 37° C. in an atmosphere containing 5% CO2. 1 μL of test compound in 100% DMSO was then added to the wells of the plate. DMSO only was added to control wells. Cells were incubated for 24 more hours in complete medium at 37° C. in an atmosphere containing 5% CO2. […] The degree of methyl ^14C-thymidine incorporation was quantified on a Packard Top Count.

A375 malignant melanoma = test: Inhibition of Cell Proliferation (14C-thymidine incorporation), A375; type: cell-based; conditions: Homo sapiens, A-375
Method: as §4, §5

HCT-116 colon carcinoma = test: Inhibition of Cell Proliferation (14C-thymidine incorporation), HCT-116; type: cell-based; conditions: Homo sapiens
Method: as §4, §5

T3 sequence (P04626 676-1255 limits assumed): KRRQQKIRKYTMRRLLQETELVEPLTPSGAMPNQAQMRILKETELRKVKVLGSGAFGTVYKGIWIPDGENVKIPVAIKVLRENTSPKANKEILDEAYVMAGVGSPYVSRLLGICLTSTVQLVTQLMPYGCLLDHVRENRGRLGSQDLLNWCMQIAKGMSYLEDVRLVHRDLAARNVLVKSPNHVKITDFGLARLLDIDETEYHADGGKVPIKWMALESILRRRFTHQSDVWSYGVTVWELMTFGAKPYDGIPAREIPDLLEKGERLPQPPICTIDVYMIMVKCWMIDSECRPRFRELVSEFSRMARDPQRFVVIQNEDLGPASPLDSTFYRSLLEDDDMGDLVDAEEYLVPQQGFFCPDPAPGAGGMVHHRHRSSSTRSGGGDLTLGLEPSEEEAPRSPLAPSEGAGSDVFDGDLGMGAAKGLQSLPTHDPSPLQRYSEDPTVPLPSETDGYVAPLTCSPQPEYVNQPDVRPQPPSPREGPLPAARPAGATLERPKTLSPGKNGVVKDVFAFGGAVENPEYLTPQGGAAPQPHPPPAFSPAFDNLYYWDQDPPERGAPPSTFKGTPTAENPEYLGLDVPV
T4 sequence (P06493 whole entry): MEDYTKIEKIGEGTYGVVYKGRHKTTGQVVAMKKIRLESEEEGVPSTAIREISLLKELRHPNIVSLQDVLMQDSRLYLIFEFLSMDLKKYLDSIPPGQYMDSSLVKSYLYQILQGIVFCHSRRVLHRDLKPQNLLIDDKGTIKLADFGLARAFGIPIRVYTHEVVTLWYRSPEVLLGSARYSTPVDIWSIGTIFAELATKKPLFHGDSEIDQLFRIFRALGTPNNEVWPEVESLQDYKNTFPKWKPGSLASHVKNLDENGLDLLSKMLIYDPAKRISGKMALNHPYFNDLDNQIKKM
T4 sequence (P14635 whole entry partner): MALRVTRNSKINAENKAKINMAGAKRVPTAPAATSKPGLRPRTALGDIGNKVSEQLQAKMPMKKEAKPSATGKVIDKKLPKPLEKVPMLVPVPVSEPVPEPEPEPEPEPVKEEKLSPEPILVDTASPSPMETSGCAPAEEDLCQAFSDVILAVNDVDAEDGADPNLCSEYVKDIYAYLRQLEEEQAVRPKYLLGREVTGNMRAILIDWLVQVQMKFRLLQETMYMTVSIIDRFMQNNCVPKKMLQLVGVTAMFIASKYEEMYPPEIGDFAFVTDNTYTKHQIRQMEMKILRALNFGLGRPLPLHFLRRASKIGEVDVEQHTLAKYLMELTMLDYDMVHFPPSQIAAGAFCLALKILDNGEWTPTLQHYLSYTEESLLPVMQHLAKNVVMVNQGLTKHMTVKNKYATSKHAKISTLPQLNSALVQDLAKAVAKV
T1 sequence (O08775 786-1343): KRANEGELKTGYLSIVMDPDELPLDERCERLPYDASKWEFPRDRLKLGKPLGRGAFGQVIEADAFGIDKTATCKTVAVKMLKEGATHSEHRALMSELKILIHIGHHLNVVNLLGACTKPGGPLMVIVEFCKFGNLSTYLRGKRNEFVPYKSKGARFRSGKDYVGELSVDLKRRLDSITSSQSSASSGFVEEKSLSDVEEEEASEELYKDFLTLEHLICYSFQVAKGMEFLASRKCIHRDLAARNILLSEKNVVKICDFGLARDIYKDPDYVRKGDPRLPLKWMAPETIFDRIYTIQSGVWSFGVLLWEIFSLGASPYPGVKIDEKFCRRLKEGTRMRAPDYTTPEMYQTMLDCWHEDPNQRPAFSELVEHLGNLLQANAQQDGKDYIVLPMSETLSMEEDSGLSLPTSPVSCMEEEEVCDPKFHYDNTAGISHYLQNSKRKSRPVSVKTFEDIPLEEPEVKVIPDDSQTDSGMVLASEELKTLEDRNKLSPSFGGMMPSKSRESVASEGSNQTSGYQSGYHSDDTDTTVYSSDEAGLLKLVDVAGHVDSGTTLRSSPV

| melting point | SMILES | IC50 (VEGF-R2 kinase) [µM] | IC50 (CDK2:Cyclin-E) [µM] | IC50 (HER2 kinase) [µM] | IC50 (CDK1:Cyclin-B) [µM] | IC50 [1] [µM] | IC50 (A375 malignant melanoma) [µM] | IC50 (HCT-116 colon carcinoma) [µM] |
| --- | --- | --- | --- | --- | --- | --- | --- | --- |
| 179 to 181 °C | Nc1ccc(C(=O)c2c(F)cccc2F)c(N)n1 [Cpd 1, (2,6-diamino-3-pyridinyl)(2,6-difluorophenyl)methanone] | > 10 |  |  |  |  |  |  |
| 208 to 210 °C (dec.) | N#Cc1ccc(Nc2ccc(C(=O)c3c(F)cccc3F)c(N)n2)cc1 [Cpd 8, 4-[[6-amino-5-(2,6-difluorobenzoyl)-2-pyridinyl]amino]benzonitrile] | > 10 |  |  |  |  |  |  |
| 220 to 225 °C | Nc1nc(Nc2ccc([N+](=O)[O-])cc2)ccc1C(=O)c1c(F)cccc1F [Cpd 9, [2-amino-6-[(4-nitrophenyl)amino]-3-pyridinyl](2,6-difluorophenyl)methanone] | > 10 |  |  |  |  |  |  |
|  | CCCCOc1cc(NC(=O)Nc2ccccc2)nc(N)c1C(=O)c1c(F)cccc1F [Cpd 32, 1-[6-Amino-4-butoxy-5-(2,6-difluoro-benzoyl)-pyridin-2-yl]-3-phenyl-urea] | > 100 | ≥ 100 | > 100 | > 100 |  |  |  |
|  | CCCCOc1cc(NC(=S)Nc2ccccc2)nc(N)c1C(=O)c1c(F)cccc1F [Cpd 33, 1-[6-Amino-4-butoxy-5-(2,6-difluoro-benzoyl)-pyridin-2-yl]-3-phenyl-thiourea] | > 100 | ≥ 100 | > 100 | > 100 |  |  |  |
|  | CCCCOc1cc(NC(=O)c2ccccc2)nc(N)c1C(=O)c1c(F)cccc1F [Cpd 34, N-[6-Amino-4-butoxy-5-(2,6-difluoro-benzoyl)-pyridin-2-yl]-benzamide] | > 100 | ≥ 100 | > 100 | > 100 |  |  |  |
|  | CCCCOc1cc(Nc2ccc(S(=O)(=O)N(C)C)cc2)nc(N)c1C(=O)c1c(F)cccc1F [Cpd 35, 4-[6-Amino-4-butoxy-5-(2,6-difluoro-benzoyl)-pyridin-2-ylamino]-N,N-dimethyl-benzenesulfonamide] | > 100 | 0.62 | > 100 | ~1 |  |  |  |
|  | CCCCOc1cc(Nc2ccc(S(N)(=O)=O)cc2)nc(N)c1C(=O)c1c(F)cccc1F [Cpd 36, 4-[6-Amino-4-butoxy-5-(2,6-difluoro-benzoyl)-pyridin-2-ylamino]-benzenesulfonamide] | > 100 | 0.07 | 1 | 0.28 | 10.7 | 2.96 | 6.78 |
